Assay results published in patent US11419921B2, “Methods of treating neurological disorders” (EnClear Therapies, Inc., priority 2018, dated 2022).

Tests used:
(GR)10 [1] = assay: (GR)10 digestion with immobilized proteases (NHS-activated agarose resin) in PBS; assay type: biochemical; details: normalized
Experimental: (§1) Protease solutions were prepared at 2 mg/mL in sterile PBS with calcium, magnesium and 200 μL ([…]) were applied to 100 μL of pre-washed NHS-activated agarose resin in 0.8 mL centrifuge columns. Reactions were left 1.5 hour at room temperature with end-to-end mixing, after which resins were washed with 12 resin volumes of PBS. Unreacted sites were blocked with 500 μL of 1M ethanolamine for 15 minutes at room temperature and resins were further washed with 24 resin volumes. Resins were stored at 4 degrees in 500 μL of PBS containing 0.05% sodium azide as preservative.
110 μL of 50 μM (GR)10 dipeptide repeats prepared in PBS were added to each immobilized protease and incubated 5 minutes at room temperature with end-to-end mixing. Columns were spun down 1 minute at 1,000 Xg to recover digested GR dipeptides. Columns were washed with 110 μL of PBS to increase (GR)10 recovery. This procedure was repeated with 60 minutes digestion time. 100 μL of each samples were transferred to a new tube and 5 μL of 10% TFA followed by 300 μL of Dilution Solution were added. The reaction mixtures were analyzed by LC/MS to determine the concentration of GR repeats of different lengths.

(GR)10 [2] = assay: (GR)10 digestion with immobilized proteases in human cerebrospinal fluid (CSF); assay type: biochemical; details: immobilized enzyme
Experimental: as §1
200 μM of (GR)10 were diluted in human cerebrospinal fluid (CSF) and 400 μL were applied to each immobilized proteases. The reaction was incubated 5 minutes at room temperature with end-to-end mixing. Columns were spun down 1 minute at 1,000 Xg to recover digested GR dipeptides. Columns were washed with 12 resin volumes of PBS. The procedure was repeated with 60 minutes digestion time. 100 μL of each samples were transferred to a clean tube, flash-frozen and subsequently used for LC/MS quantification of GR repeats of different lengths. The remaining 300 μL of each samples were flash-frozen and used to assess neuron toxicity.
(GR)10 was digested with exemplary immobilized enzymes as described above in the subsection titled “(GR)10 digestion with immobilized proteases in CSF” of Example 3. Clostripain experiments were conducted with and without DTT activation (no DTT during digestion). The results obtained after 5 and 60 minutes of reaction time are presented in Table 25 and shown in FIG. 5 (commercial and in-house immobilized trypsin), FIG. 6 (immobilized elastase, FIG. 7A (immobilized clostripain without DTT) and FIG. 7 (immobilized clostripain with 2.5 mM DTT).

[3] = resin wash from 60 min reaction

Elastase: protease that cleaves at the carboxyl side of small hydrophobic amino acids; in Table 22 also immobilized on agarose resin
(GR)1 ((GR)10 [1]; Immobilized - 5 min reaction): 33.1 µM
(GR)2 ((GR)10 [1]; Immobilized - 5 min reaction): 4.8 µM
(GR)3 ((GR)10 [1]; Immobilized - 5 min reaction): 0.0 µM
(GR)4 ((GR)10 [1]; Immobilized - 5 min reaction): 0.0 µM
(GR)5 ((GR)10 [1]; Immobilized - 5 min reaction): 0.0 µM
(GR)6 ((GR)10 [1]; Immobilized - 5 min reaction): 0.0 µM
(GR)8 ((GR)10 [1]; Immobilized - 5 min reaction): 0.0 µM
(GR)10 ((GR)10 [1]; Immobilized - 5 min reaction): 0.0 µM
(GR)1 ((GR)10 [1]; immobilized - 60 min reaction): 48.1 µM
(GR)2 ((GR)10 [1]; immobilized - 60 min reaction): 0.0 µM
(GR)3 ((GR)10 [1]; immobilized - 60 min reaction): 0.0 µM
(GR)4 ((GR)10 [1]; immobilized - 60 min reaction): 0.0 µM
(GR)5 ((GR)10 [1]; immobilized - 60 min reaction): 0.0 µM
(GR)6 ((GR)10 [1]; immobilized - 60 min reaction): 0.0 µM
(GR)8 ((GR)10 [1]; immobilized - 60 min reaction): 0.0 µM
(GR)10 ((GR)10 [1]; immobilized - 60 min reaction): 0.0 µM
(GR)1 ((GR)10 [1]; resin wash from 5 min reaction): 13.8 µM
(GR)2 ((GR)10 [1]; resin wash from 5 min reaction): 0.0 µM
(GR)3 ((GR)10 [1]; resin wash from 5 min reaction): 0.0 µM
(GR)4 ((GR)10 [1]; resin wash from 5 min reaction): 0.0 µM
(GR)5 ((GR)10 [1]; resin wash from 5 min reaction): 0.0 µM
(GR)6 ((GR)10 [1]; resin wash from 5 min reaction): 0.0 µM
(GR)8 ((GR)10 [1]; resin wash from 5 min reaction): 0.0 µM
(GR)10 ((GR)10 [1]; resin wash from 5 min reaction): 0.0 µM
(GR)1 ((GR)10 [1]; [3]): 18.5 µM
(GR)2 ((GR)10 [1]; [3]): 0.0 µM
(GR)3 ((GR)10 [1]; [3]): 0.0 µM
(GR)4 ((GR)10 [1]; [3]): 0.0 µM
(GR)5 ((GR)10 [1]; [3]): 0.0 µM
(GR)6 ((GR)10 [1]; [3]): 0.0 µM
(GR)8 ((GR)10 [1]; [3]): 0.0 µM
(GR)10 ((GR)10 [1]; [3]): 0.0 µM
(GR)1 (normalized uM) ((GR)10 [2]; 5 min reaction): 57.4 µM
(GR)2 (normalized uM) ((GR)10 [2]; 5 min reaction): 29.4 µM
(GR)3 (normalized uM) ((GR)10 [2]; 5 min reaction): 20.7 µM
(GR)4 (normalized uM) ((GR)10 [2]; 5 min reaction): 22 µM
(GR)5 (normalized uM) ((GR)10 [2]; 5 min reaction): 10.5 µM
(GR)6 (normalized uM) ((GR)10 [2]; 5 min reaction): 0.0 µM
(GR)8 (normalized uM) ((GR)10 [2]; 5 min reaction): 0.0 µM
(GR)10 (normalized uM) ((GR)10 [2]; 5 min reaction): 0.0 µM
(GR)1 (normalized uM) ((GR)10 [2]; 60 min reaction): 200.3 µM
(GR)2 (normalized uM) ((GR)10 [2]; 60 min reaction): 6 µM
(GR)3 (normalized uM) ((GR)10 [2]; 60 min reaction): 0.0 µM
(GR)4 (normalized uM) ((GR)10 [2]; 60 min reaction): 0.0 µM
(GR)5 (normalized uM) ((GR)10 [2]; 60 min reaction): 0.0 µM
(GR)6 (normalized uM) ((GR)10 [2]; 60 min reaction): 0.0 µM
(GR)8 (normalized uM) ((GR)10 [2]; 60 min reaction): 0.0 µM
(GR)10 (normalized uM) ((GR)10 [2]; 60 min reaction): 0.0 µM
